Patent US20220218715A1, “NOVEL USE OF PYRROLO-PYRIDINE DERIVATIVE COMPOUND FOR PREVENTION AND/OR TREATMENT OF CANCER” (VORONOI CO., LTD., priority 2019, published 2022)

Columns and labels:
NCI-H2228 = test: EGFR expression and signalling after treatment, western blot; format: cell-based; settings: FIG. 7
Protocol: (§1) For the Ba/F3 EGFR L858R/T790M/C797S cell line, Ba/F3 naive cells purchased from DSMZ were transfected with EGFR L858R/T790M/C797S […] DNA using lipofectamine, and a cell line selected using 1 μg/ml puromycin for 2 weeks was used. Here, the culture medium used was RPMI-1640 with 10% FBS and 1% penicillin streptomycin. The NCI-H2228 and CAL-27 cell lines were purchased from ATCC, and for culturing RPMI-1640 with 10% FBS and 1% penicillin streptomycin was used for NCI-H2228, while for CAL-27 DMEM with 10% FBS and 1% penicillin streptomycin was used.
(§2) As needed, culturing was performed for 1 hour with Cyclohexamine at 30 μg/mL concentration, followed by 15 minutes EGF treatment at a concentration of 100 ng/mL. For the phosphoarray experiment, DYRK1a siRNA was reacted with HEK293T cells for 48 hours at 30 nM concentration, confirming inhibition of DYRK1a expression in the cells. These were used as the control for the main experiment.

[1] = tested on: Ba/F3 EGFR L858R/T790M/C797S cells; test: Cell growth inhibition, celltiterglo; format: cell-based; settings: 72 hours, concomitant use with Osimertinib, compared with same amount of Harmine, FIG. 8
Protocol: The cells were treated for 72 hours using a serially diluted compound. The cell activity inhibition results for the compounds were measured using celltiterglo.

MC38 colon cancer = test: Anticancer effect in MC38 colon cancer transplant mouse model; format: in vivo, female C57BL/6 mouse
Protocol: (§3) The 3LL cells were cultured in Hams F10:L15=3:7 culture medium, the EMT-6 cells were cultured in Waymouth's MB 752/1 culture medium, and the MC38 cells were cultured in a DMEM culture medium with 10% FBS and 1% penicillin streptomycin, at 37° C. in a 5% CO2 humidified cell culture incubator.
The mouse PD-1 antibody (BE-0146), PD-L1 antibody (BE-0101), and CTLA-4 antibody (BE-0131) were purchased from BioXcell.
(§4) All animal tests were carried out through WuXi AppTec.

[2] = tested on: NCI-H1975 lung cancer cells; test: Anticancer effect in mouse model with NCI-H1975 lung cancer cells; format: in vivo, Balb/c Nude Mice
Protocol: The NCI-H1975 cell line was purchased from the Institute of Biochemistry and Cell Biology (Shanghai Institutes for Biological Sciences, CAS). Cells were kept in RPMI-1640 containing 10% FBS, and cultured in a 37° C. humidified cell culture incubator at 5% CO2. All animal experiments were carried out according to the Animal Use and Management Guidelines of Shanghai Medicilon Inc. […] Tumor size and animal body weight were measured twice weekly, and clinical symptoms were recorded daily. The mice will be administered individually according to most recent body weight. The tumors were measured using calipers using two measurements, length (a) and width (b). The volume of the tumors was calculated individually as follows, from the two measured diameters of the tumors: tumor volume (mm^3)=(a×b^2)/2.

PC-9 cell line = test: Lung cancer cell colony formation inhibition; format: cell-based, human; settings: concomitant treatment with Gefitinib or Osimertinib, vs single treatment or Harmine, from 10 days, FIG. 1
Description: Specifically, the PC-9 cell line was purchased from the ECACC (European Collection of Authenticated Cell Cultures), and RPMI-1640 with 10% FBS and 1% penicillin streptomycin was used. PC-9GR cells cultured with slow and sustained exposure to Gefitinib (manufactured by Selleckchem) were serially cultured with 1 μmol/L Gefitinib.
The remaining colony-forming cells were fixed with methanol (1%) and formaldehyde (1%), then dyed with 0.5% crystal violet before photographing each well.

EMT6 breast cancer = test: Anticancer effect in EMT6 breast cancer transplant mouse model; format: in vivo, female C57BL/6 mouse; settings: singular treatment, 45, 60, 75 mg/kg po BID, FIG. 6a
Protocol: as §3, §4

[3] = tested on: Ba/F3 EGFR L858R/T790M/C797S; test: EGFR expression after treatment, western blot; format: cell-based; settings: 0.5, 1.2 and 5 μM, 4 or 24 hours, FIG. 7
Protocol: as §1, §2

CAMKK2 = target: T1, CAMKK2 (Homo sapiens, UniProt Q96RR4); test: scanMAX Kinase analysis panel (DiscoverX); format: binding; settings: 1 μM in DMSO
T1 construct: purchased DiscoverX
Description: (§5) [(Example Compound−Positive Control)/(Negative Control−Positive Control)×100]

HUNK = target: T2, HUNK (Homo sapiens, UniProt P57058); test: scanMAX Kinase analysis panel (DiscoverX); format: binding; settings: 1 μM in DMSO
T2 construct: purchased DiscoverX scanMAX Kinase analysis panel
Description: as §5

STK39 = target: T3, STK39 (Homo sapiens, UniProt Q9UEW8); test: scanMAX Kinase analysis panel (DiscoverX); format: binding; settings: 1 μM in DMSO
T3 construct: purchased DiscoverX scanMAX Kinase analysis panel
Description: as §5

CHEK2 = target: T4, CHEK2 (Homo sapiens, UniProt O96017); test: scanMAX Kinase analysis panel (DiscoverX); format: binding; settings: 1 μM in DMSO
T4 construct: purchased DiscoverX
Description: as §5

cSNK1D = target: T5, cSNK1D (Homo sapiens, UniProt P48730); test: scanMAX Kinase analysis panel (DiscoverX); format: binding
T5 construct: purchased DiscoverX
Description: as §5

LTK = target: T6, LTK (Homo sapiens, UniProt P29376); test: scanMAX Kinase analysis panel (DiscoverX); format: binding; settings: 1 μM in DMSO
T6 construct: purchased DiscoverX
Description: as §5

PAK2 = target: T7, PAK2 (Homo sapiens, UniProt Q13177); test: scanMAX Kinase analysis panel (DiscoverX); format: binding; settings: 1 μM in DMSO
T7 construct: purchased DiscoverX
Description: as §5

INSR = target: T8, INSR (Homo sapiens, UniProt P06213); test: scanMAX Kinase analysis panel (DiscoverX); format: binding; settings: 1 μM in DMSO
T8 construct: purchased DiscoverX scanMAX Kinase analysis panel
Description: as §5

ERK5 = target: T9, ERK5 (Homo sapiens, UniProt Q13164); test: scanMAX Kinase analysis panel (DiscoverX); format: binding; settings: 1 μM in DMSO
T9 construct: purchased DiscoverX scanMAX Kinase analysis panel
Description: as §5

JNK2 = target: T10, JNK2 (Homo sapiens, UniProt P45984); test: scanMAX Kinase analysis panel (DiscoverX); format: binding; settings: 1 μM in DMSO
T10 construct: purchased DiscoverX scanMAX Kinase analysis panel
Description: as §5

CSNK1A1 = target: T11, CSNK1A1 (Homo sapiens, UniProt P48729); test: scanMAX Kinase analysis panel (DiscoverX); format: binding; settings: 1 μM in DMSO
T11 construct: purchased DiscoverX
Description: as §5

JNK3 = target: T12, JNK3 (Homo sapiens, UniProt P53779); test: scanMAX Kinase analysis panel (DiscoverX); format: binding; settings: 1 μM in DMSO
T12 construct: purchased DiscoverX scanMAX Kinase analysis panel
Description: as §5

T6 sequence (P29376 17-864): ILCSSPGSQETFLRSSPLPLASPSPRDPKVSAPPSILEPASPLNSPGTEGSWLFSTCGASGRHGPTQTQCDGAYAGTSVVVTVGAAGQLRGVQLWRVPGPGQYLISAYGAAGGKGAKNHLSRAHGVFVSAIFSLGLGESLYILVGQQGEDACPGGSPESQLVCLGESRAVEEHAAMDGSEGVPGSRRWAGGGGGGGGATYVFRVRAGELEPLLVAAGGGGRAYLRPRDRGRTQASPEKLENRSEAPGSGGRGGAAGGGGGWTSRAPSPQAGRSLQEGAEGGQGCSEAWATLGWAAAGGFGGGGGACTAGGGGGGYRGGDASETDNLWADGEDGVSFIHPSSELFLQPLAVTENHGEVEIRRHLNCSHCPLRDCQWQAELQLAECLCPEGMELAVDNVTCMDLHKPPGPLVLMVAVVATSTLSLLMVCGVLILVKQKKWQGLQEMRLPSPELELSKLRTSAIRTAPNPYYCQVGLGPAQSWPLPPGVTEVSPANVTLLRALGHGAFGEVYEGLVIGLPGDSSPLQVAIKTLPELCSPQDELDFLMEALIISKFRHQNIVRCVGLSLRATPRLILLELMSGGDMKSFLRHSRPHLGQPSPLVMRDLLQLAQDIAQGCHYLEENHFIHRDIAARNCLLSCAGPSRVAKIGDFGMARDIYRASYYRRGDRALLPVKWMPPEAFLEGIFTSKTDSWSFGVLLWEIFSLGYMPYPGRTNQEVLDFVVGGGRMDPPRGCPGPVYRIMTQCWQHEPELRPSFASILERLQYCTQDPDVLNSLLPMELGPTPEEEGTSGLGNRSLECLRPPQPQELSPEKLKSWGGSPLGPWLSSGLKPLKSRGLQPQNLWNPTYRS
T8 sequence (P06213 28-1382): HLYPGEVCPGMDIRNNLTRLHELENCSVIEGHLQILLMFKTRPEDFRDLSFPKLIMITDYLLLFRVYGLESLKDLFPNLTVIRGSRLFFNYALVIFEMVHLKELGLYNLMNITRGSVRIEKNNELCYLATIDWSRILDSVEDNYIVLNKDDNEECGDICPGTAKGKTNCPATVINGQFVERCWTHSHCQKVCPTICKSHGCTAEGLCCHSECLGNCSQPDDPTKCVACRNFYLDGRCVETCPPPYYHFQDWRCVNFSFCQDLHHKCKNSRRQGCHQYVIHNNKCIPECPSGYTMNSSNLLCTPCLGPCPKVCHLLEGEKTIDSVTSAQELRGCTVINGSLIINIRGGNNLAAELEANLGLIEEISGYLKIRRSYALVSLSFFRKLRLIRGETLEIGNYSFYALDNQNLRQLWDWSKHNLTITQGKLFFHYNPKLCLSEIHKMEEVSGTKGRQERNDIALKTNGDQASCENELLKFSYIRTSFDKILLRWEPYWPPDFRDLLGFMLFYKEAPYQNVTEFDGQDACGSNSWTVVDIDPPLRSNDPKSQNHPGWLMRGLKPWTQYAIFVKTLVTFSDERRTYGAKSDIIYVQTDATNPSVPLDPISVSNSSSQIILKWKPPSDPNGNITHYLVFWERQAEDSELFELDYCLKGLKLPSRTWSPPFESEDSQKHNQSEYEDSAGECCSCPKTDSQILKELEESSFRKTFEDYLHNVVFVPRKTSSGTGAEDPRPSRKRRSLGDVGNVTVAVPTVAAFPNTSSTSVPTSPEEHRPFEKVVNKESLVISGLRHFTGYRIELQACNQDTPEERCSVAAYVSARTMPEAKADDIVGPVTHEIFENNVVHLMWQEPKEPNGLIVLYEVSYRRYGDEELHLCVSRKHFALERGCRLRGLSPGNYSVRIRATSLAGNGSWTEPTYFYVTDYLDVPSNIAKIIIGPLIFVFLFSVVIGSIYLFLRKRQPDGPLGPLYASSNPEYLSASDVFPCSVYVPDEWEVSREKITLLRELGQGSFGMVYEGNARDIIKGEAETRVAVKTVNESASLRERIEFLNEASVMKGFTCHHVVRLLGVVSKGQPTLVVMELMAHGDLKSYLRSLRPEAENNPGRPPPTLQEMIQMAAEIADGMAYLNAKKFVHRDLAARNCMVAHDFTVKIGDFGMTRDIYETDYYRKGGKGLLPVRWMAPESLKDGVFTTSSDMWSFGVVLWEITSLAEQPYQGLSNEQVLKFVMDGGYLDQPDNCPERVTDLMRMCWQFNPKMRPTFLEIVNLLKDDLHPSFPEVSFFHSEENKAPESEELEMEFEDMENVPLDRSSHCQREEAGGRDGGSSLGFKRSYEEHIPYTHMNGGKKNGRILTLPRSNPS
T11 sequence (P48729 whole entry): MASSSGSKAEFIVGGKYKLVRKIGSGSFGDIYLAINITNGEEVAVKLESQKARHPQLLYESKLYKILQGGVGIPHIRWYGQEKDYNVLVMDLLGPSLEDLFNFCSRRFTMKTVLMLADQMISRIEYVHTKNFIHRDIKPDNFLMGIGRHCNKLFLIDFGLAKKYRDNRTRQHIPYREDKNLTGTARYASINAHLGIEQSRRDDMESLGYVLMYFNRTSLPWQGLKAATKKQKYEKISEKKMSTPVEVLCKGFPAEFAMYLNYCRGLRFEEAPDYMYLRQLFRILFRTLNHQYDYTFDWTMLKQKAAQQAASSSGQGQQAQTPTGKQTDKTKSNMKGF
T12 sequence (P53779 whole entry): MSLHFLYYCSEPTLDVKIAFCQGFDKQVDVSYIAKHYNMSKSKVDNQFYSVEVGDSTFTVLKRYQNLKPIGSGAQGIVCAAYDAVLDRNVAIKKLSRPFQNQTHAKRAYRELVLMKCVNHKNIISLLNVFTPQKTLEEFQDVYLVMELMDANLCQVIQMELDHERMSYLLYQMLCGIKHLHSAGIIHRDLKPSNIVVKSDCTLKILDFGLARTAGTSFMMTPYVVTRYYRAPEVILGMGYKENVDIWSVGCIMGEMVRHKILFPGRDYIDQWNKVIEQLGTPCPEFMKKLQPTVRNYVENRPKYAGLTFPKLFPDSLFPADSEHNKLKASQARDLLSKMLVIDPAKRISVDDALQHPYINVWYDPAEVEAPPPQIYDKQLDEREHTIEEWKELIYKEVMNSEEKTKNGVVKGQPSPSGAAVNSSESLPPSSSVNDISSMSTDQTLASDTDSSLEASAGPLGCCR
T1 sequence (Q96RR4 whole entry): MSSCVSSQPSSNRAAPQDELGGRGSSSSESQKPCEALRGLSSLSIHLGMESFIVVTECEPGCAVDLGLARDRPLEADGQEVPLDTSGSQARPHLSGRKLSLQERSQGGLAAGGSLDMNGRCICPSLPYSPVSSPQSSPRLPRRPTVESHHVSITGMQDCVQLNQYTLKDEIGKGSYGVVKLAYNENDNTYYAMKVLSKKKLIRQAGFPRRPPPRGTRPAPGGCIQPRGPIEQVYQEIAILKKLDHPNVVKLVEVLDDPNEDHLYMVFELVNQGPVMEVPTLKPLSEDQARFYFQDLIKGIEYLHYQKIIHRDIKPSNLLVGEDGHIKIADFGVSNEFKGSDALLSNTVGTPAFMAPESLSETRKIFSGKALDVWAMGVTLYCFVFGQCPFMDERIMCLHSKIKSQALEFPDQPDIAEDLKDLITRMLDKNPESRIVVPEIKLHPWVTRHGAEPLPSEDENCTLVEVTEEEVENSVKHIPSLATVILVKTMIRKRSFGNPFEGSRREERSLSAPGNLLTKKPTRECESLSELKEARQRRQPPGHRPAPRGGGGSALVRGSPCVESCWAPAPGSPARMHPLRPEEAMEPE
T4 sequence (O96017 whole entry): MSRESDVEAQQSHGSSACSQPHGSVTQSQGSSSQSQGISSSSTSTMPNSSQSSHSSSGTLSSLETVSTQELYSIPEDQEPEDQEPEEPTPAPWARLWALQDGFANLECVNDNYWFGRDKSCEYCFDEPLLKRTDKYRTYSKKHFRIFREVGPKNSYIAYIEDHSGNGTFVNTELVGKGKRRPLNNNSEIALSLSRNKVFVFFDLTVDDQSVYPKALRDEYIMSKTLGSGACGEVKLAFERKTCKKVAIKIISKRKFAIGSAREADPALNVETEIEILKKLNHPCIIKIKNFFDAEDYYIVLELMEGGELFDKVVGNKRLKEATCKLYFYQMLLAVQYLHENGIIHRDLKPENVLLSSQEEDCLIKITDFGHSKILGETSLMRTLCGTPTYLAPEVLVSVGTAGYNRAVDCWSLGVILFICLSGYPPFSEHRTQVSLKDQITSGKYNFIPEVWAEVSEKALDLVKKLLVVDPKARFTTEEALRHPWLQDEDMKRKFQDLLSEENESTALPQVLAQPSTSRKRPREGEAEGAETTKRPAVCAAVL
T9 sequence (Q13164 whole entry): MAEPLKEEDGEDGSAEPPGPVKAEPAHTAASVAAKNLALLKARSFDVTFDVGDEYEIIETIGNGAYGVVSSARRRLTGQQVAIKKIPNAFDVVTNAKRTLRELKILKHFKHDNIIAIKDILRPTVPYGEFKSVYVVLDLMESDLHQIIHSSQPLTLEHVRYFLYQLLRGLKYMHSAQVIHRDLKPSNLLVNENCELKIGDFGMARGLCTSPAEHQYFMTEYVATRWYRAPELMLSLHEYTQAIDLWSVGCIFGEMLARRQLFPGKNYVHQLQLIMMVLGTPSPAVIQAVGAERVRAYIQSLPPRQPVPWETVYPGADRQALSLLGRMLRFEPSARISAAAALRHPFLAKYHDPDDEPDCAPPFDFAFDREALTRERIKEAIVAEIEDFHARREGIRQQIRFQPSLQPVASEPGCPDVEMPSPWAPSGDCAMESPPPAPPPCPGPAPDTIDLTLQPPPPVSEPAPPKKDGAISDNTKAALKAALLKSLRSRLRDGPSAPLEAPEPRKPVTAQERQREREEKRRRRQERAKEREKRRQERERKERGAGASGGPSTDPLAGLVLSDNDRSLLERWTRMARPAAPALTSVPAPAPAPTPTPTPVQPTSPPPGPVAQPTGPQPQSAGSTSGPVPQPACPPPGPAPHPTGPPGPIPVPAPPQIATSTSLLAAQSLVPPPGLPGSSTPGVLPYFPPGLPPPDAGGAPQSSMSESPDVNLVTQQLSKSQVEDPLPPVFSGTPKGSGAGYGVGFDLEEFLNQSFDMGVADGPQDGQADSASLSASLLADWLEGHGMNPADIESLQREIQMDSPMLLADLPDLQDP

Compound: CCNc1cc(Nc2ccc(C(=O)N3CCC(N4CCOCC4)CC3)cc2OC)nc2[nH]cc(C(F)(F)F)c12 [Compound 1, (4-((4-(ethylamino)-3-(trifluoromethyl)-1H-pyrrolo[2,3-b]pyridine-6-yl)amino)-3-methoxyphenyl) (4-morpholinopiperidine-1-yl)methanone]
- EGFR expression (NCI-H2228; 0.5, 1.2 and 5 μM, 4 or 24 hours): reduced EGFR expression
- p-AKT (S473) (NCI-H2228): reduction
- p-Erk 1/2 (T202/Y204) (NCI-H2228): reduction
- cell growth inhibition effect [1]: improved cell growth inhibition effect compared to treatment with the same amount of Harmine
- tumor suppression effect (MC38 colon cancer; concomitant with PD-1, PD-L1 and CTLA-4 antibodies 10 mg/kg IP BIW, FIG. 6c): improved concomitant effect
- tumor suppression effect (MC38 colon cancer; singular treatment, 45, 60, 75 mg/kg po BID, FIG. 6a): insignificant tumor suppression effect
- anticancer effect ([2]; Compound 1 40 or 60 mg/kg concomitant with Osimertinib 3.5 mg/kg, PO QD, vs Osimertinib alone, FIG. 5): substantially reduced lung cancer (NCI-H1975) cells
- anticancer effect ([2]; singular treatment with Compound 1, 60 mg/kg PO QD): no anticancer effect
- colony formation inhibition (PC-9 cell line): substantially inhibit formation of lung cancer cell colonies
- tumor suppression effect (EMT6 breast cancer): insignificant tumor suppression effect
- EGFR expression [3]: reduced EGFR expression
- inhibition at 1 µM (CAMKK2): 40 to 59%
- inhibition at 1 µM (HUNK): 40 to 59%
- inhibition at 1 µM (STK39): 40 to 59%
- inhibition at 1 µM (CHEK2): 40 to 59%
- inhibition at 1 µM (cSNK1D): ≥ 59%
- inhibition at 1 µM (LTK): ≥ 59%
- inhibition at 1 µM (PAK2): ≥ 59%
- inhibition at 1 µM (INSR): 40 to 59%
- inhibition at 1 µM (ERK5): 40 to 59%
- inhibition at 1 µM (JNK2): 40 to 59%
- inhibition at 1 µM (CSNK1A1): 40 to 59%
- inhibition at 1 µM (JNK3): 40 to 59%
